# Experimental data published in patent US20070128217A1 (priority 2003, published 2007).
# Key:
# [1] = tested on: control sera (pooled serum of ten healthy LUMC hospital workers; commercial negative donor pooled serum from the Dutch bloodbank); assay type: binding, human; set-up: Binding of Control serum LUMC to linear peptides / Binding of Control serum Blood-bank to linear peptides / Binding of Control serum LUMC to looped peptides / Binding of Control Serum Blood-Bank to Looped peptides / Binding of Control serum LUMC to linear peptides of the protein M of SARS-CoV Urbani / Binding of Control serum Blood-bank to linear peptides of the protein M of SARS-CoV Urbani / Binding of Control serum LUMC to looped peptides of the protein M of SARS-CoV Urbani / Binding of Control Serum Blood-Bank to Looped peptides of the protein M of SARS-CoV Urbani: unit not given here
# [2] = tested on: rabbit serum obtained by immunizing a rabbit with the SARS-CoV strain Frankfurt 1; assay type: binding; set-up: Binding of a rabbit serum to linear peptides / Binding of a rabbit serum to looped peptides / Rabbit serum linear peptides / Rabbit serum looped peptides / Binding of a rabbit serum to linear peptides of protein N of SARS-CoV Urbani (Rabbit serum linear peptides) / Binding of a rabbit serum to looped/cyclic peptides of protein N of SARS-CoV Urbani (Rabbit serum looped peptides): unit not given here
# [3] = tested on: antibodies in sera from SARS patients (sera 1a, 1b, 2, 6, 37, 62, London, SARS-yellow, SARS-green); assay type: binding, human; set-up: Binding of serum 6 to linear peptides of protein X1 of SARS-CoV Urbani / Binding of serum 37 to linear peptides of protein X1 of SARS-CoV Urbani / Binding of serum 6 to looped/cyclic peptide (PEPSCAN-ELISA) / Binding of serum 37 to looped/cyclic peptide (PEPSCAN-ELISA) / Binding of serum 37 to looped/cyclic peptides of protein X1 of SARS-CoV Urbani / Binding of serum 6 to linear peptides of protein X2 / Binding of serum 37 to linear peptides of protein X2 / Binding of serum 37 to looped/cyclic peptides of protein X2 of SARS-CoV Urbani / Binding of serum 6 to linear peptides of protein M of SARS-CoV Urbani / Binding of serum 37 to linear peptides of protein M of SARS-CoV Urbani / Binding of serum 6 to looped/cyclic peptides of protein M of SARS-CoV Urbani / Binding of serum 37 to looped/cyclic peptides of protein M of SARS-CoV Urbani / Binding of serum 6 to linear peptides of protein X3 of SARS-CoV Urbani / Binding of serum 37 to linear peptides of protein X3 of SARS-CoV Urbani / Binding of serum 37 to looped/cyclic peptides of protein X3 of SARS-CoV Urbani / Binding of serum 6 to linear peptides of protein X4 of SARS-CoV Urbani / Binding of serum 37 to linear peptides of protein X4 of SARS-CoV Urbani / Binding of serum 37 to looped/cyclic peptides of protein X4 of SARS-CoV Urbani / Binding of serum 6 to linear peptides of protein X5 of SARS-CoV Urbani / Binding of serum 37 to linear peptides of protein X5 of SARS-CoV Urbani / Binding of serum 37 to looped/cyclic peptides of protein X5 of SARS-CoV Urbani / Binding of serum 6 to linear peptides of protein N of SARS-CoV Urbani / Binding of serum 37 to linear peptides of protein N of SARS-CoV Urbani / Binding of serum 6 to linear peptide (PEPSCAN-ELISA) / Binding of serum 1a to looped/cyclic peptides of protein N of SARS-CoV Urbani / Binding of serum 1b to looped/cyclic peptides of protein N of SARS-CoV Urbani / Binding of serum 2 to looped/cyclic peptides of protein N of SARS-CoV Urbani / Binding of serum 6 to looped/cyclic peptides of protein N of SARS-CoV Urbani / Binding of serum 37 to looped/cyclic peptides of protein N of SARS-CoV Urbani / Binding of serum 62 to looped/cyclic peptides of protein N of SARS-CoV Urbani / Binding of serum London to looped/cyclic peptides of protein N of SARS-CoV Urbani / Binding of serum SARS-green to looped/cyclic peptides of protein N of SARS-CoV Urbani: unit not given here
sequence,measurement,setting,value
RWQLALYKGFQFICN,Binding of Control Serum Blood-Bank to Looped peptides,[1],0.6
same,Binding of Control serum Blood-bank to linear peptides,[1],0.6
same,Binding of Control serum LUMC to linear peptides,[1],0.4
same,Binding of Control serum LUMC to looped peptides,[1],0.6
same,Binding of a rabbit serum to linear peptides,[2],0.3
same,Binding of a rabbit serum to looped peptides,[2],0.9
same,Binding of serum 1a to linear peptides of protein X1 of SARS-CoV Urbani,[3],0.7
same,Binding of serum 1a to looped/cyclic peptide (PEPSCAN-ELISA),[3],0.6
same,Binding of serum 1b to linear peptides of protein X1 of SARS-CoV Urbani,[3],0.5
same,Binding of serum 1b to looped/cyclic peptide (PEPSCAN-ELISA),[3],0.4
same,Binding of serum 2 to linear peptides of protein X1 of SARS-CoV Urbani,[3],0.5
same,Binding of serum 2 to looped/cyclic peptide (PEPSCAN-ELISA),[3],0.5
same,Binding of serum 6 to linear peptides of protein X1 of SARS-CoV Urbani,[3],0.4
same,Binding of serum 6 to looped/cyclic peptide (PEPSCAN-ELISA),[3],0.9
same,Binding of serum 37 to linear peptides of protein X1 of SARS-CoV Urbani,[3],0.6
same,Binding of serum 37 to looped/cyclic peptide (PEPSCAN-ELISA),[3],0.6
same,Binding of serum 62 to linear peptides of protein X1 of SARS-CoV Urbani,[3],0.5
same,Binding of serum 62 to looped/cyclic peptide (PEPSCAN-ELISA),[3],0.6
same,Binding of serum London to linear peptides of protein X1 of SARS-CoV Urbani,[3],0.3
same,Binding of serum London to looped/cyclic peptide (PEPSCAN-ELISA),[3],1.4
same,Binding of serum SARS-green to linear peptides of protein X1 of SARS-CoV Urbani,[3],0.3
same,Binding of serum SARS-green to looped/cyclic peptide (PEPSCAN-ELISA),[3],0.3
same,Binding of serum SARS-yellow to linear peptides of protein X1 of SARS-CoV Urbani,[3],0.2
same,Binding of serum SARS-yellow to looped/cyclic peptide (PEPSCAN-ELISA),[3],0.6
RYNTRGNTYSTAWLC,Binding of Control Serum Blood-Bank to Looped peptides,[1],0.0
same,Binding of Control serum Blood-bank to linear peptides,[1],0.7
same,Binding of Control serum LUMC to linear peptides,[1],0.3
same,Binding of Control serum LUMC to looped peptides,[1],0.1
same,Rabbit serum linear peptides,[2],0.7
same,Rabbit serum looped peptides,[2],0.0
same,Binding of serum 1a to linear peptides of protein X5 of SARS-CoV Urbani,[3],0.8
same,Binding of serum 1a to looped/cyclic peptides of protein X5 of SARS-CoV Urbani,[3],0.5
same,Binding of serum 1b to linear peptides of protein X5 of SARS-CoV Urbani,[3],0.4
same,Binding of serum 1b to looped/cyclic peptides of protein X5 of SARS-CoV Urbani,[3],0.0
same,Binding of serum 2 to linear peptides of protein X5 of SARS-CoV Urbani,[3],0.5
same,Binding of serum 2 to looped/cyclic peptides of protein X5 of SARS-CoV Urbani,[3],0.3
same,Binding of serum 6 to linear peptides of protein X5 of SARS-CoV Urbani,[3],0.9
same,Binding of serum 6 to looped/cyclic peptides of protein X5 of SARS-CoV Urbani,[3],0.1
same,Binding of serum 37 to linear peptides of protein X5 of SARS-CoV Urbani,[3],0.4
same,Binding of serum 37 to looped/cyclic peptides of protein X5 of SARS-CoV Urbani,[3],0.0
same,Binding of serum 62 to linear peptides of protein X5 of SARS-CoV Urbani,[3],0.7
same,Binding of serum 62 to looped/cyclic peptides of protein X5 of SARS-CoV Urbani,[3],0.2
same,Binding of serum London to linear peptides of protein X5 of SARS-CoV Urbani,[3],1.0
same,Binding of serum London to looped/cyclic peptides of protein X5 of SARS-CoV Urbani,[3],0.2
same,Binding of serum SARS-green to linear peptides of protein X5 of SARS-CoV Urbani,[3],0.6
same,Binding of serum SARS-green to looped/cyclic peptides of protein X5 of SARS-CoV Urbani,[3],0.1
same,Binding of serum SARS-yellow to linear peptides of protein X5 of SARS-CoV Urbani,[3],0.2
same,Binding of serum SARS-yellow to looped/cyclic peptides of protein X5 of SARS-CoV Urbani,[3],0.6
SCELYHYQECVRGTT,Binding of Control Serum Blood-Bank to Looped peptides,[1],0.6
same,Binding of Control serum Blood-bank to linear peptides,[1],0.5
same,Binding of Control serum LUMC to linear peptides,[1],0.3
same,Binding of Control serum LUMC to looped peptides,[1],0.8
same,Rabbit serum linear peptides,[2],0.4
same,Rabbit serum looped peptides,[2],0.0
same,Binding of serum 1a to linear peptides of protein X4 of SARS-CoV Urbani,[3],0.8
same,Binding of serum 1a to looped/cyclic peptides of protein X4 of SARS-CoV Urbani,[3],0.5
same,Binding of serum 1b to linear peptides of protein X4 of SARS-CoV Urbani,[3],0.6
same,Binding of serum 1b to looped/cyclic peptides of protein X4 of SARS-CoV Urbani,[3],0.4
same,Binding of serum 2 to linear peptides of protein X4 of SARS-CoV Urbani,[3],0.4
same,Binding of serum 2 to looped/cyclic peptides of protein X4 of SARS-CoV Urbani,[3],0.5
same,Binding of serum 6 to linear peptides of protein X4 of SARS-CoV Urbani,[3],0.5
same,Binding of serum 6 to looped/cyclic peptides of protein X4 of SARS-CoV Urbani,[3],0.5
same,Binding of serum 37 to linear peptides of protein X4 of SARS-CoV Urbani,[3],0.7
same,Binding of serum 37 to looped/cyclic peptides of protein X4 of SARS-CoV Urbani,[3],0.6
same,Binding of serum 62 to linear peptides of protein X4 of SARS-CoV Urbani,[3],0.6
same,Binding of serum 62 to looped/cyclic peptides of protein X4 of SARS-CoV Urbani,[3],0.5
same,Binding of serum London to linear peptides of protein X4 of SARS-CoV Urbani,[3],0.8
same,Binding of serum London to looped/cyclic peptides of protein X4 of SARS-CoV Urbani,[3],0.3
same,Binding of serum SARS-green to linear peptides of protein X4 of SARS-CoV Urbani,[3],0.5
same,Binding of serum SARS-green to looped/cyclic peptides of protein X4 of SARS-CoV Urbani,[3],0.2
same,Binding of serum SARS-yellow to linear peptides of protein X4 of SARS-CoV Urbani,[3],0.2
same,Binding of serum SARS-yellow to looped/cyclic peptides of protein X4 of SARS-CoV Urbani,[3],0.2
SFRLFARTRSMWSFN,Binding of Control Serum Blood-Bank to Looped peptides of the protein M of SARS-CoV Urbani,[1],0.7
same,Binding of Control serum Blood-bank to linear peptides of the protein M of SARS-CoV Urbani,[1],0.6
same,Binding of Control serum LUMC to linear peptides of the protein M of SARS-CoV Urbani,[1],0.4
same,Binding of Control serum LUMC to looped peptides of the protein M of SARS-CoV Urbani,[1],0.6
same,Rabbit serum linear peptides,[2],0.8
same,Rabbit serum looped peptides,[2],0.2
same,Binding of serum 1a to linear peptides of protein M of SARS-CoV Urbani,[3],0.8
same,Binding of serum 1a to looped/cyclic peptides of protein M of SARS-CoV Urbani,[3],0.6
same,Binding of serum 1b to linear peptides of protein M of SARS-CoV Urbani,[3],0.7
same,Binding of serum 1b to looped/cyclic peptides of protein M of SARS-CoV Urbani,[3],0.5
same,Binding of serum 2 to linear peptides of protein M of SARS-CoV Urbani,[3],0.5
same,Binding of serum 2 to looped/cyclic peptides of protein M of SARS-CoV Urbani,[3],0.5
same,Binding of serum 6 to linear peptides of protein M of SARS-CoV Urbani,[3],0.2
same,Binding of serum 6 to looped/cyclic peptides of protein M of SARS-CoV Urbani,[3],0.8
same,Binding of serum 37 to linear peptides of protein M of SARS-CoV Urbani,[3],0.8
same,Binding of serum 37 to looped/cyclic peptides of protein M of SARS-CoV Urbani,[3],0.6
same,Binding of serum 62 to linear peptides of protein M of SARS-CoV Urbani,[3],0.7
same,Binding of serum 62 to looped/cyclic peptides of protein M of SARS-CoV Urbani,[3],0.6
same,Binding of serum London to linear peptides of protein M of SARS-CoV Urbani,[3],0.3
same,Binding of serum London to looped/cyclic peptides of protein M of SARS-CoV Urbani,[3],0.2
same,Binding of serum SARS-green to linear peptides of protein M of SARS-CoV Urbani,[3],0.4
same,Binding of serum SARS-green to looped/cyclic peptides of protein M of SARS-CoV Urbani,[3],0.3
same,Binding of serum SARS-yellow to linear peptides of protein M of SARS-CoV Urbani,[3],0.1
same,Binding of serum SARS-yellow to looped/cyclic peptides of protein M of SARS-CoV Urbani,[3],0.5
